# Like-named read-outs stand apart in the source and are kept apart here.
# Experiments:
# Test in all cases: microbe, parasite or virus in culture
# Format in all cases: cell-based
# [1] = test system: HCV 1b RLuc cells (dicistronic genotype 1b Con1 replicon, RLuc reporter); conditions: Hepatitis C virus, read-out: 1b (nM)
# Method in brief: (§1)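 Replicon cells stably carrying the listed RLuc-encoding dicistronic replicons were seeded and treated with DMSO serial dilutions of compound (10 mM stocks) diluted into culture medium. After 72 h, cells were lysed and Renilla luciferase activity measured. EC50 was derived by non-linear regression.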
# [2] = test system: HCV 1a RLuc cells (dicistronic genotype 1a H77 replicon, RLuc reporter); conditions: Hepatitis C virus, read-out: 1a
# Method in brief: as §1
# [3] = test system: HCV 3a RLuc cells (NS5A chimeric genotype 1b Con1 replicon with consensus genotype 3a NS5A gene); conditions: Hepatitis C virus
# Method in brief: as §1
# [4] = test system: HCV 2a JFH-1 Rluc cells (dicistronic genotype 2a JFH-1 replicon, RLuc reporter); conditions: Hepatitis C virus, genotype 2a JFH-1 replicon, read-out: 2a JFH
# Method in brief: as §1
# [5] = test system: HCV 4a Rluc cells (NS5A chimeric genotype 1b Con1 replicon with genotype 4a NS5A gene); conditions: Hepatitis C virus, read-out: 4a
# Method in brief: as §1
# [6] = 72 h, Table 1, genotype 1a H77 replicon, 72 hours
# [7] = read-out: 3a, Table 1, genotype 3a NS5A chimeric replicon
# [8] = genotype 1a H77 replicon, RLuc reporter
# [9] = read-out: 3a, genotype 3a NS5A chimeric 1b Con1 replicon
# [10] = read-out: 3a, genotype 3a replicon
# [11] = 72 h, Table 2, genotype 1a H77 replicon, 72 hours
# [12] = read-out: 3a, Table 2, genotype 3a NS5A chimeric replicon
compound,measurement,setting,value
COC(=O)N[C@H](C(=O)N1CCC[C@H]1c1ncc(-c2cc3c4c(c2)CCc2cc(-c5cnc([C@@H]6CCCN6C(=O)[C@@H](NC(=O)OC)[C@H](C)OC)[nH]5)cc(c2-4)CC3)[nH]1)C(C)C [Example 25],EC50,[1]; 72 h,0.021 nM
same,EC50,[2]; [6],0.001 to 0.999 nM
same,EC50,[3]; [7],0.001 to 0.99 nM
same,EC50,"[4]; 72 h, Table 1, 72 hours",0.001 to 0.999 nM
same,EC50,[5],0.001 to 0.99 nM
COC(=O)N[C@H](C(=O)N[C@H](c1nc(-c2ccc3c(c2)C(F)(F)c2cc(-c4ccc5nc([C@@H]6CCCN6C(=O)[C@H](NC(=O)OC)c6ccccc6)[nH]c5c4)ccc2-3)c[nH]1)C(C)C)C(C)C [Example 226],EC50,[1],0.009 nM
same,EC50,[2]; [8],1 to 44 nM
same,EC50,[3]; [9],1 to 4.99 nM
same,EC50,[4]; RLuc reporter,1 to 44 nM
same,EC50,[5],0.001 to 0.99 nM
COC(=O)N[C@H](C(=O)N1CCC[C@H]1c1nc2ccc(-c3ccc4c(c3)C(F)(F)c3cc(-c5c[nH]c([C@@H]6CCCN6C(=O)[C@H](NC(=O)OC)c6ccccc6)n5)ccc3-4)cc2[nH]1)C(C)C [Example 217],EC50,[1],0.009 nM
same,EC50,[2]; [8],0.001 to 0.999 nM
same,EC50,[3]; [9],0.001 to 0.99 nM
same,EC50,[4]; RLuc reporter,0.001 to 0.999 nM
same,EC50,[5],0.001 to 0.99 nM
COC(=O)N[C@H](C(=O)N1CCC[C@H]1c1ncc(-c2ccc3c4ccc(-c5cnc([C@@H]6CCCN6C(=O)[C@@H](NC(=O)OC)C6CCOCC6)[nH]5)cc4c4ccccc4c3c2)[nH]1)C1CCOCC1 [Example 309],EC50,[1],0.219 nM
same,EC50,[2]; genotype 1a replicon,0.001 to 0.999 nM
same,EC50,[3]; [10],0.001 to 0.99 nM
same,EC50,[4],0.001 to 0.999 nM
same,EC50,[5],0.001 to 0.99 nM
COC(=O)N[C@@H](C(=O)N1[C@@H]2CC[C@@H](C2)[C@H]1c1ncc(-c2ccc(-c3ccc4c(ccc5nc([C@@H]6C[C@H]7C[C@H]7N6C(=O)[C@H](NC(=O)OC)c6ccccc6)[nH]c54)c3)cc2)[nH]1)c1ccccc1 [Example 334],EC50,[1],0.009 nM
same,EC50,[2]; genotype 1a replicon,0.001 to 0.999 nM
same,EC50,[3]; [10],0.001 to 0.99 nM
same,EC50,[4],0.001 to 0.999 nM
same,EC50,[5],0.001 to 0.99 nM
COC(=O)N[C@H](C(=O)N1CCC[C@H]1c1ncc(-c2ccc3c(c2)CCc2cc(-c4ccc5nc([C@@H]6[C@H]7CC[C@H](C7)N6C(=O)[C@@H](NC(=O)OC)C6CCOCC6)[nH]c5c4)ccc2-3)[nH]1)C1CCOCC1 [Example 77],EC50,[1]; 72 h,0.029 nM
same,EC50,[2]; [11],0.001 to 0.999 nM
same,EC50,[3]; [12],0.001 to 0.99 nM
same,EC50,"[4]; 72 h, Table 2, 72 hours",0.001 to 0.999 nM
same,EC50,[5],0.001 to 0.99 nM
COC(=O)N[C@H](C(=O)N1CCC[C@H]1c1nc2ccc(-c3ccc4c(c3)CCc3cc(-c5cnc([C@@H]6CCCN6C(=O)C(c6ccccc6)N(C)C)[nH]5)ccc3-4)cc2[nH]1)C(C)C (stereo partly shown) [Example 181],EC50,[1],0.01 nM
same,EC50,[2]; [8],0.001 to 0.999 nM
same,EC50,[3]; [9],0.001 to 0.99 nM
same,EC50,[4]; RLuc reporter,0.001 to 0.999 nM
same,EC50,[5],0.001 to 0.99 nM
COC(=O)N[C@H](C(=O)N1CCC[C@H]1c1ncc(-c2ccc3c4ccc(-c5cnc([C@@H]6CCCN6C(=O)[C@@H](NC(=O)OC)[C@@H](C)OC)[nH]5)cc4c4ccccc4c3c2)[nH]1)C(C)C [Example 311],EC50,[1],0.025 nM
same,EC50,[2]; genotype 1a replicon,0.001 to 0.999 nM
same,EC50,[3]; [10],0.001 to 0.99 nM
same,EC50,[4],0.001 to 0.999 nM
same,EC50,[5],0.001 to 0.99 nM
COC(=O)N[C@H](C(=O)N1CCC[C@H]1c1nc2ccc3cc(-c4ccc(-c5cnc([C@@H]6[C@H]7CC[C@H](C7)N6C(=O)[C@@H](NC(=O)OC)[C@@H](C)OC)[nH]5)c(F)c4)ccc3c2[nH]1)C(C)C [Example 100],EC50,[1]; 72 h,0.004 nM
same,EC50,[2]; [11],0.001 to 0.999 nM
same,EC50,[3]; [12],0.001 to 0.99 nM
same,EC50,"[4]; 72 h, Table 2, 72 hours",0.001 to 0.999 nM
same,EC50,[5],0.001 to 0.99 nM
COC(=O)N[C@H](C(=O)N1CCC[C@H]1c1ncc(-c2ccc(-c3ccc(-c4[nH]c([C@@H]5CCCN5C(=O)[C@@H](NC(=O)OC)C(C)C)nc4Cl)cc3)cc2)[nH]1)C(C)C [Example 359],EC50,[1],0.011 nM
same,EC50,[2]; genotype 1a replicon,0.001 to 0.999 nM
same,EC50,[3]; [10],0.001 to 0.99 nM
same,EC50,[4],0.001 to 0.999 nM
same,EC50,[5],0.001 to 0.99 nM
COC(=O)N[C@H](C(=O)N1CCC[C@H]1c1ncc(-c2ccc3c(c2)C(F)(F)c2cc(-c4ccc5nc([C@@H]6CC7(CN6C(=O)[C@H](NC(=O)OC)c6ccccc6)OCCO7)[nH]c5c4)ccc2-3)[nH]1)C1CCOCC1 [Example 58],EC50,[1]; 72 h,0.017 nM
same,EC50,[2]; [11],0.001 to 0.999 nM
same,EC50,[3]; [12],1 to 4.99 nM
same,EC50,"[4]; 72 h, Table 2, 72 hours",0.001 to 0.999 nM
same,EC50,[5],0.001 to 0.99 nM
COC(=O)N[C@@H](C)C(=O)N1CCC[C@H]1c1ncc(-c2ccc3c(c2)COc2c-3ccc3cc(-c4cnc([C@@H]5CCCN5C(=O)[C@H](NC(=O)OC)c5ccccc5)[nH]4)ccc23)[nH]1 [Example 7],EC50,[1]; 72 h,0.008 nM
same,EC50,[2]; [6],0.001 to 0.999 nM
same,EC50,[3]; [7],0.001 to 0.99 nM
same,EC50,"[4]; 72 h, Table 1, 72 hours",0.001 to 0.999 nM
same,EC50,[5],0.001 to 0.99 nM
COC(=O)N[C@H](C(=O)N1CCC[C@H]1c1nc2ccc3cc(-c4ccc5cc(-c6cnc([C@@H]7CCCN7C(=O)[C@H](NC(=O)OC7COC7)c7ccccc7)[nH]6)ccc5c4)ccc3c2[nH]1)C(C)C [Example 289],EC50,[1],0.01 nM
same,EC50,[2]; [8],0.001 to 0.999 nM
same,EC50,[3]; [9],0.001 to 0.99 nM
same,EC50,[4]; RLuc reporter,0.001 to 0.999 nM
same,EC50,[5],0.001 to 0.99 nM
COC(=O)N[C@H](C(=O)N1CCC[C@H]1c1ncc(-c2ccc(-c3ccc4c(ccc5nc([C@@H]6CC7(CN6C(=O)[C@@H](NC(=O)OC)C6CCOCC6)OCCO7)[nH]c54)c3)cc2)[nH]1)C(C)C [Example 91],EC50,[1]; 72 h,0.1 nM
same,EC50,[2]; [11],0.001 to 0.999 nM
same,EC50,[3]; [12],1 to 4.99 nM
same,EC50,"[4]; 72 h, Table 2, 72 hours",0.001 to 0.999 nM
same,EC50,[5],0.001 to 0.99 nM
COC(=O)N[C@H](C(=O)N1CCC[C@H]1c1ncc(-c2ccc3c(ccc4cc(-c5cnc([C@@H]6[C@H]7CC[C@H](C7)N6C(=O)[C@@H](NC(=O)OC)C(C)C)[nH]5)ccc43)c2)[nH]1)C(C)C [Example 303],EC50,[1],0.008 nM
same,EC50,[2]; genotype 1a replicon,0.001 to 0.999 nM
same,EC50,[3]; [10],0.001 to 0.99 nM
same,EC50,[4],0.001 to 0.999 nM
same,EC50,[5],0.001 to 0.99 nM
COC(=O)NC(C(=O)N1C[C@H](C)C[C@H]1c1ncc(-c2ccc(-c3ccc4cc(-c5cnc([C@@H]6CCCN6C(=O)[C@@H](NC(=O)OC)C(C)C)[nH]5)ccc4c3)cc2)[nH]1)c1cccnc1 (stereo partly shown) [Example 215],EC50,[1],0.023 nM
same,EC50,[2]; [8],0.001 to 0.999 nM
same,EC50,[3]; [9],0.001 to 0.99 nM
same,EC50,[4]; RLuc reporter,0.001 to 0.999 nM
same,EC50,[5],0.001 to 0.99 nM
COC(=O)N[C@H](C(=O)N1CCC[C@H]1c1ncc(-c2ccc3c(c2)OCc2c-3ccc(-c3cnc([C@@H]4CCCN4C(=O)[C@@H](NC(=O)OC)C(C)C)[nH]3)c2F)[nH]1)C(C)C [Example 331],EC50,[1],0.006 nM
same,EC50,[2]; genotype 1a replicon,0.001 to 0.999 nM
same,EC50,[3]; [10],0.001 to 0.99 nM
same,EC50,[4],0.001 to 0.999 nM
same,EC50,[5],0.001 to 0.99 nM
COC(=O)N[C@H](C(=O)N1CCC[C@H]1c1ncc(-c2cc3c4c(c2)OCc2cc(-c5cnc([C@@H]6CCCN6C(=O)[C@@H](NC(=O)OC)[C@@H](C)OC)[nH]5)cc(c2-4)OC3)[nH]1)C(C)C [Example 313],EC50,[1],0.079 nM
same,EC50,[2]; genotype 1a replicon,0.001 to 0.999 nM
same,EC50,[3]; [10],0.001 to 0.99 nM
same,EC50,[4],0.001 to 0.999 nM
same,EC50,[5],0.001 to 0.99 nM
COC(=O)N[C@H](C(=O)N1CCC[C@H]1c1nc2ccc(-c3ccc4c(c3)C(F)(F)c3cc(-c5c[nH]c([C@@H]6CCCN6C(=O)[C@H](NC(=O)OC)c6ccccc6)n5)ccc3-4)cc2[nH]1)C1CCOCC1 [Example 218],EC50,[1],0.01 nM
same,EC50,[2]; [8],0.001 to 0.999 nM
same,EC50,[3]; [9],0.001 to 0.99 nM
same,EC50,[4]; RLuc reporter,0.001 to 0.999 nM
same,EC50,[5],0.001 to 0.99 nM
COC(=O)NC(C(=O)N1CCC[C@H]1c1ncc(-c2ccc(-c3ccc4c(ccc5nc([C@@H]6[C@H]7CC[C@H](C7)N6C(=O)[C@@H](NC(=O)OC)C(C)C)[nH]c54)c3)cc2)[nH]1)C1CCOCC1 (stereo partly shown) [Example 69],EC50,[1]; 72 h,0.035 nM
same,EC50,[2]; [11],0.001 to 0.999 nM
same,EC50,[3]; [12],0.001 to 0.99 nM
same,EC50,"[4]; 72 h, Table 2, 72 hours",0.001 to 0.999 nM
same,EC50,[5],0.001 to 0.99 nM

# Source: patent US10344019B2 (priority 2010, dated 2019)
